{"source": "paper PMC3306445", "about": "(Journal of Medicinal Chemistry, 2012)", "key": {"[1]": {"target": "Pseudomonas aeruginosa thymidylate monophosphate kinase (TMK) (Pseudomonas aeruginosa, UniProt Q9HZN8)", "sequence (Q9HZN8 whole entry)": "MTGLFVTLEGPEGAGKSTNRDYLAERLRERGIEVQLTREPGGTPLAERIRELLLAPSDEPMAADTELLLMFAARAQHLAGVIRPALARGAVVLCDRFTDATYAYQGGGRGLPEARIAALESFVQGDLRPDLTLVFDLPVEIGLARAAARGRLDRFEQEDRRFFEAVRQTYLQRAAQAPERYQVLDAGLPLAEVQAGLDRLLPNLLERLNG", "assay": "Thymidylate kinase kinetic assay", "assay_type": "biochemical", "conditions": "for fold improved inhibition over 1: PaTMK IC50 compared with 1; for fold decreased inhibition compared with 17: PaTMK IC50 compared with 17; for fold improved potency over 19: PaTMK IC50 compared with secondary amide 19"}, "TMK": {"target": "TMK", "conditions": "high binding affinity due to LID loop closure; cited from earlier work"}}, "data": [{"smiles": "CNC(=O)c1cccc(-c2cnc3[nH]c(=O)n(C)c3c2)c1", "note": "[Compound 19, N-Methyl-3-(1-methyl-2-oxo-2,3-dihydro-1H-imidazo[4,5-b]pyridin-6-yl)benzamide]", "values": [{"measurement": "fold improved inhibition over 1", "setting": "[1]", "value": 30, "unit": "fold"}, {"measurement": "fold decreased inhibition compared with 17", "setting": "[1]", "value": 5, "unit": "fold"}]}, {"smiles": "Cn1c(=O)[nH]c2ncc(-c3cccc(C(=O)NCCCc4ccc(F)cc4)c3)cc21", "note": "[Compound 47, N-(3-(4-Fluorophenyl)propyl)-3-(1-methyl-2-oxo-2,3-dihydro-1H-imidazo[4,5-b]pyridin-6-yl)benzamide]", "values": [{"measurement": "fold improved potency over 19", "setting": "[1]", "value": "ca. 18 fold"}]}, {"smiles": "Cn1c(=O)[nH]c2ncc(-c3cccc(C(=O)NCC(Cc4ccccc4)C(=O)O)c3)cc21", "note": "(centres unmarked) [Compound 53, 2-Benzyl-3-(3-(1-methyl-2-oxo-2,3-dihydro-1H-imidazo[4,5-b]pyridin-6-yl)benzamido)propanoic acid]", "values": [{"measurement": "fold improved potency over 19", "setting": "[1]", "value": "ca. 18 fold"}]}, {"smiles": "Cc1cn([C@H]2C[C@H](O)[C@@H](COP(=O)(O)OP(=O)(O)OP(=O)(O)OP(=O)(O)OP(=O)(O)OC[C@H]3O[C@@H](n4cnc5c(N)ncnc54)[C@H](O)[C@@H]3O)O2)c(=O)[nH]c1=O", "note": "[TP5A, P1-(5′-adenosyl)-P5-(5′-thymidyl)pentaphosphate]", "values": [{"measurement": "Kd", "setting": "TMK", "value": 20, "unit": "nM"}]}, {"smiles": "Cn1c(=O)[nH]c2ncc(-c3cccc(C(=O)NCC(=O)O)c3)cc21", "note": "[Compound 31, 2-(3-(1-Methyl-2-oxo-2,3-dihydro-1H-imidazo[4,5-b]pyridin-6-yl)benzamido)acetic acid]", "values": [{"measurement": "fold improved potency over 19", "setting": "[1]", "value": "about 2.5 fold"}]}, {"smiles": "Cn1c(=O)[nH]c2ncc(-c3cccc(C(=O)NCCCc4ccc(C(F)(F)F)cc4)c3)cc21", "note": "[Compound 57, 3-(1-Methyl-2-oxo-2,3-dihydro-1H-imidazo[4,5-b]pyridin-6-yl)-N-(3-(4-(trifluoromethyl)phenyl)propyl)benzamide]", "values": [{"measurement": "fold improved potency over 19", "setting": "[1]", "value": "ca. 18 fold"}]}, {"smiles": "Cl.Cn1c(=O)[nH]c2ncc(-c3cccc(CN)c3)cc21", "note": "[Compound 15, 6-(3-(Aminomethyl)phenyl)-1-methyl-1H-imidazo[4,5-b]pyridin-2(3H)-one hydrochloride]", "values": [{"measurement": "PaTMK inhibition (in words)", "setting": "[1]", "value": "lack of activity"}]}, {"smiles": "Cn1c(=O)[nH]c2ncc(-c3cccc(C(N)=O)c3)cc21", "note": "[Compound 17, 3-(1-Methyl-2-oxo-2,3-dihydro-1H-imidazo[4,5-b]pyridin-6-yl)benzamide]", "values": [{"measurement": "fold improved inhibition over 1", "setting": "[1]", "value": 130, "unit": "fold"}, {"measurement": "fold increase of PaTMK inhibition over 26", "setting": "[1]; compared with 26 (p-carboxamide)", "value": "ca. 1000 fold"}]}, {"smiles": "Cn1c(=O)[nH]c2ncc(-c3cccc(C(=O)NCCCc4c[nH]c5ccccc45)c3)cc21", "note": "[Compound 48, N-(3-(1H-Indol-3-yl)propyl)-3-(1-methyl-2-oxo-2,3-dihydro-1H-imidazo[4,5-b]pyridin-6-yl)benzamide]", "values": [{"measurement": "fold improved potency over 19", "setting": "[1]", "value": "ca. 18 fold"}]}, {"smiles": "CN(C)C(=O)c1cccc(-c2cnc3[nH]c(=O)n(C)c3c2)c1", "note": "[Compound 20, N,N-Dimethyl-3-(1-methyl-2-oxo-2,3-dihydro-1H-imidazo[4,5-b]pyridin-6-yl)benzamide]", "values": [{"measurement": "fold decreased inhibition compared with 17", "setting": "[1]", "value": 240, "unit": "fold"}]}, {"smiles": "Cn1c(=O)[nH]c2ncc(-c3cccc(C(=O)NCC(N)=O)c3)cc21", "note": "[Compound 30, N-(2-Amino-2-oxoethyl)-3-(1-methyl-2-oxo-2,3-dihydro-1H-imidazo[4,5-b]pyridin-6-yl)benzamide]", "values": [{"measurement": "fold improved potency over 19", "setting": "[1]", "value": "about 2.5 fold"}]}, {"smiles": "Cn1c(=O)[nH]c2ncc(-c3cccc(C#N)c3)cc21", "note": "[Compound 14, 3-(1-Methyl-2-oxo-2,3-dihydro-1H-imidazo[4,5-b]pyridin-6-yl)benzonitrile]", "values": [{"measurement": "PaTMK inhibition (in words)", "setting": "[1]", "value": "inactive"}]}]}
